Series [1] is described as follows: Inhibition of Escherichia coli IMP-7 using fluorocillin as substrate incubated for 30 mins by fluorescence based assay.
Series [2] has as its target BlaVIM-1 (Escherichia coli, UniProt Q8GDC1). Briefly: Inhibition of Escherichia coli VIM-1 using fluorocillin as substrate incubated for 30 mins by fluorescence based assay.
Series [3] can be described thus: Lipophilicity, log D of the compound at pH 7.4 by HPLC-MS analysis. In kind it is physicochemical. The following applies: buffer.
The nature of series [4]: Inhibition of Escherichia coli NDM-1 using fluorocillin as substrate incubated for 30 mins by fluorescence based assay.
For series [5], the system named is Escherichia coli. Kind of series: Antibacterial activity against VIM-1 expressing Escherichia coli isolates assessed as inhibition of bacterial growth by microdilution method. Format: functional, organism-based.
The subject of series [6] is Escherichia coli. Briefly: Antibacterial activity against NDM-1 expressing Escherichia coli isolates assessed as inhibition of bacterial growth by microdilution method. In kind it is functional, organism-based.
Series [7] deals with Escherichia coli. Briefly: Antibacterial activity against IMP-1 expressing Escherichia coli isolates assessed as inhibition of bacterial growth by microdilution method. Format: functional, organism-based.
The subject of series [8] is Pseudomonas aeruginosa. Kind of series: Antibacterial activity against VIM-2 expressing Pseudomonas aeruginosa isolates assessed as inhibition of bacterial growth by microdilution method. In kind it is functional, organism-based.
Series [9] addresses Stromelysin-1 (Homo sapiens) (UniProt P08254). Briefly: Inhibition of human MMP-3 at 100 uM relative to control.
Series [10] has as its target T1, Matrix metalloproteinase-14 (Homo sapiens, UniProt P50281). Kind of series: Inhibition of human MMP-14.
In series [11] the test system is A549. Briefly: Cytotoxicity against human A549 cells assessed as reduction in cell viability at 100 uM relative to control. Format: toxicity, cell-based. The following applies: a549, 100 µM.
Series [12] has as its target Neutrophil collagenase (Homo sapiens) (UniProt P22894). Kind of series: Inhibition of human MMP-8 at 100 uM relative to control.
Series [13] concerns the target T1, Matrix metalloproteinase-14. Kind of series: Inhibition of human MMP-14 at 100 uM relative to control.
Series [14] concerns HEK293. Briefly: Cytotoxicity against human HEK293 cells assessed as reduction in cell viability at 100 uM relative to control. Format: toxicity, cell-based. The following applies: hek293, 100 µM.
For series [15], the target named is T2, 72 kDa type IV collagenase (Homo sapiens, UniProt P08253). Briefly: Inhibition of human MMP-2 at 100 uM relative to control.
Target sequence in this assay (P08253 110-660 limits assumed): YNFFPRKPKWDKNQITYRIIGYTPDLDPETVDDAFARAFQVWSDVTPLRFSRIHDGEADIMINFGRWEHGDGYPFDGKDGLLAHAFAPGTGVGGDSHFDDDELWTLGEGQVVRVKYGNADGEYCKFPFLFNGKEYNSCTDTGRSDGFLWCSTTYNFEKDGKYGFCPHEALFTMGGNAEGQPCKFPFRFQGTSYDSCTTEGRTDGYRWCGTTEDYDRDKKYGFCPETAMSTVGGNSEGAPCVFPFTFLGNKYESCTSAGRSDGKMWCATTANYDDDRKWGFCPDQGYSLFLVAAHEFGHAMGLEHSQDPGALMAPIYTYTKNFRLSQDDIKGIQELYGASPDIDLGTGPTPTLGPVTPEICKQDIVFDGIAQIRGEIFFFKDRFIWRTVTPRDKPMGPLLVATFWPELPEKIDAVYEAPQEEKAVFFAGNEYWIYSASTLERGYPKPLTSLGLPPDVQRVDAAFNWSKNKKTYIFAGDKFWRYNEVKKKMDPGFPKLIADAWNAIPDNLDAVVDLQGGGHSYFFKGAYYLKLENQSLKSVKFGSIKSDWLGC
Series [16] concerns the target T3, Interstitial collagenase (Homo sapiens) (UniProt P03956).
T3 sequence (whole entry): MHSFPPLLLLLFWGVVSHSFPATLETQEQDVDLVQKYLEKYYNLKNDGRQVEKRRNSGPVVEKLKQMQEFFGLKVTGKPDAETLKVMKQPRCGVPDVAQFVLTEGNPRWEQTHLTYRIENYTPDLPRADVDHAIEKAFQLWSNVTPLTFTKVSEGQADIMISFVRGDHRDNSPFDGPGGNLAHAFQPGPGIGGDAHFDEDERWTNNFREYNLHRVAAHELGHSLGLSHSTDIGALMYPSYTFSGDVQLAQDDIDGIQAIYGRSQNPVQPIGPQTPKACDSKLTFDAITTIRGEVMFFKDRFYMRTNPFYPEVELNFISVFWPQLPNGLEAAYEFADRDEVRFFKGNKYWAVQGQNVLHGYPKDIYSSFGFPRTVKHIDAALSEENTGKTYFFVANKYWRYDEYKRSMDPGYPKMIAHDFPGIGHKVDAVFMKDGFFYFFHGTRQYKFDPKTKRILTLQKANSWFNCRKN
Briefly: Inhibition of human MMP-1 at 100 uM relative to control.

Series [17] has as its target T4, Matrilysin (Homo sapiens) (UniProt P09237).
T4 sequence (whole entry): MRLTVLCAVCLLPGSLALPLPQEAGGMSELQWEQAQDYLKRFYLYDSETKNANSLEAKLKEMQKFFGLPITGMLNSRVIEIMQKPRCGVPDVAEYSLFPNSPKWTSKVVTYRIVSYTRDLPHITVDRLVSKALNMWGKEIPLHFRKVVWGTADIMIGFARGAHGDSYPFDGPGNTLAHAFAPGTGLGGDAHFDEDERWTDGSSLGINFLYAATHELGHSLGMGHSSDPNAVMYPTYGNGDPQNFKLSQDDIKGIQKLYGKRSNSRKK
Briefly: Inhibition of human MMP-7 at 100 uM relative to control.

A short description of series [18]: Toxicity in zebrafish embryo assessed as maximum tolerated concentration measured up to 120 hrs. The following applies: in vivo, read-out: MTC. More on the design: species or system Danio rerio.
The target in series [19] is Disintegrin and metalloproteinase domain-containing protein 17 (Homo sapiens) (UniProt P78536). Briefly: Inhibition of human TACE at 100 uM relative to control.
For series [20], the system named is HepG2. Briefly: Cytotoxicity against human HepG2 cells assessed as reduction in cell viability at 100 uM relative to control. The following applies: hepg2, 100 µM. In kind it is toxicity, cell-based.
The test system of series [21] is Pseudomonas aeruginosa. Briefly: Inhibition of Pseudomonas aeruginosa quorum sensing system LasB at 100 uM.
For series [22], the target named is T2, 72 kDa type IV collagenase. Briefly: Inhibition of human MMP-2.
Target sequence in this assay (P08253 whole entry): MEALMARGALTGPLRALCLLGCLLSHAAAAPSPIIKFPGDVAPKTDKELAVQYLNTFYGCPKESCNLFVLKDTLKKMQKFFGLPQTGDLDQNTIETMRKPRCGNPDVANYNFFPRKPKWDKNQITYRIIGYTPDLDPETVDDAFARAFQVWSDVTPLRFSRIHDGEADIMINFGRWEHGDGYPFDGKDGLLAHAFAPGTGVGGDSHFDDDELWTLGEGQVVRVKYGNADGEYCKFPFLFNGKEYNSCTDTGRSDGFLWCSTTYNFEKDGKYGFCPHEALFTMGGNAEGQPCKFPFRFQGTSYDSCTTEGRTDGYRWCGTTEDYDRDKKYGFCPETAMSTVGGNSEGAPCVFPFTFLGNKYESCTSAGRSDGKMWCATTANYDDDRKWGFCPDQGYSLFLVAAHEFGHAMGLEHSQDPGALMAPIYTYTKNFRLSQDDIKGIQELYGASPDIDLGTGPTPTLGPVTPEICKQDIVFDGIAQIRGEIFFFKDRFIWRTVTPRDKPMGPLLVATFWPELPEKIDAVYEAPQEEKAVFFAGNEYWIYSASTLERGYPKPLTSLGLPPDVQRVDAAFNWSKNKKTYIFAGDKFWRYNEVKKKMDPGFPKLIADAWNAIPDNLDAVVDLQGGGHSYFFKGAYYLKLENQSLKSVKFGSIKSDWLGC

Active and inactive are the calls of the source. The calls are words filed in the database; no cut-off is given here.

Sequence of Neutrophil collagenase (Homo sapiens) (P22894 101-467 limits assumed): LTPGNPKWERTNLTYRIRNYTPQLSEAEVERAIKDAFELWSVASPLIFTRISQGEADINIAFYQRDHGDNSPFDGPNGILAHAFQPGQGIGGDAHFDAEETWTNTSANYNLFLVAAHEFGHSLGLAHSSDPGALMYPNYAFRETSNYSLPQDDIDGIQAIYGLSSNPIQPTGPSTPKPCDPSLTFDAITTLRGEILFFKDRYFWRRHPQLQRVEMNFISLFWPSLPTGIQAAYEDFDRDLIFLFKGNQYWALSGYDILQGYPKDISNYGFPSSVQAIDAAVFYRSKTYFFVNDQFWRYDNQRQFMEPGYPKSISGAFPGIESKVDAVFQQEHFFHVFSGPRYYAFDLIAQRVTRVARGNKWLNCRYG
Sequence of Disintegrin and metalloproteinase domain-containing protein 17 (Homo sapiens) (P78536 whole entry, the tested form may be a part): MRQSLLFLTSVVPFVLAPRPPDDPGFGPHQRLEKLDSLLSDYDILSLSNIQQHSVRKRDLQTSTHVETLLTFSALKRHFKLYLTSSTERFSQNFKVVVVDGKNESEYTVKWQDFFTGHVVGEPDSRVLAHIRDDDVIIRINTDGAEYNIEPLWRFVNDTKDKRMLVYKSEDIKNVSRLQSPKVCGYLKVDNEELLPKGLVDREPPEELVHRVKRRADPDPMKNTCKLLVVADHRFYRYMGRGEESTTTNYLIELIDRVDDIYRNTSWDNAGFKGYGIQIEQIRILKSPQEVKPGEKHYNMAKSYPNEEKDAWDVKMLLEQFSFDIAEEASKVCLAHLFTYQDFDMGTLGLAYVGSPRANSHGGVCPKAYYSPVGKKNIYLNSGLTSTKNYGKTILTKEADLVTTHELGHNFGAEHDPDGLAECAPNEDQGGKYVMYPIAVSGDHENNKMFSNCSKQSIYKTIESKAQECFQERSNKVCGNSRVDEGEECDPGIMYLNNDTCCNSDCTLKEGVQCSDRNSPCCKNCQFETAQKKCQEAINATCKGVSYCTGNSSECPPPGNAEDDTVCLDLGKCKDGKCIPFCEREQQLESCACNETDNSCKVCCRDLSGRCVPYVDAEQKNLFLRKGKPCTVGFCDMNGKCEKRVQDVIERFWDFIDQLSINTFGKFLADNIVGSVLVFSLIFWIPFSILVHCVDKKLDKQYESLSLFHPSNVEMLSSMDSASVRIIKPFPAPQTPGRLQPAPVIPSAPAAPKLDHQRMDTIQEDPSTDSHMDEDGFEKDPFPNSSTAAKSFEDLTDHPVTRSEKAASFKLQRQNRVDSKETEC
Sequence of Stromelysin-1 (Homo sapiens) (P08254 100-477 limits assumed): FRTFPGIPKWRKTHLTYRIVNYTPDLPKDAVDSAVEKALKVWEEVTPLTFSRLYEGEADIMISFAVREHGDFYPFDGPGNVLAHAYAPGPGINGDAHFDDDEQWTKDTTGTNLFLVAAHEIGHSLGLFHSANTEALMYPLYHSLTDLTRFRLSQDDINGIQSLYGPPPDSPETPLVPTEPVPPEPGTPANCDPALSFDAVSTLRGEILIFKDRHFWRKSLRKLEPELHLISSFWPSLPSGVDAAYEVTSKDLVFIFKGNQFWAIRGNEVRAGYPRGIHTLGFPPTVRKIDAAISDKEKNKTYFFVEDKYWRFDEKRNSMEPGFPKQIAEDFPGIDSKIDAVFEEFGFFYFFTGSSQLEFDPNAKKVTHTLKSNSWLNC

Consider `CN1CCN(Cc2ccc(NC(=O)CCS)cc2)CC1`, for which the IC50 in series [1] was found to be 5800 nM; in [2], 1500 nM; in series [4], 6400 nM. The logD in series [3] is 0.28.
With `NCc1cccc(NC(=O)CCS)c1`, the outcome in series [5], in [6], in series [7] and in [8] was inactive. The IC50 in [1] amounted to 5100 nM; in [2], 1000 nM; in series [4], 5500 nM. Besides, in series [3], the logD is 0.28.
For `O=C(CCS)Nc1cccc(O)c1`, the IC50 in series [1] is 1400 nM; in series [2], 100 nM; in series [4] it was 2700 nM. This compound had a log distribution coefficient (logD) in series [3] of 0.41.
With `O=C(CCS)Nc1ccccc1C(=O)O`, the inhibition is 17% in series [9]; less than 10% in [12]; 77% in [13]; less than 10% in series [15]; less than 10% in series [16]; 11% in series [17]. For the same compound, in series [19], the inhibition is less than 10%. For the same compound, the outcome in [5], in series [6], in [7] and in [8] was inactive. The half-maximal inhibitory concentration (IC50) is 12000 nM in series [10], 4100 nM in [1], 2200 nM in series [2] and 3400 nM in [4]. The Activity in series [11], in series [14] and in series [20] was less than 10% each time. Moreover, the logD in series [3] is -0.92. The MNTC at 120 h in [18] is no less than 150 µM.
`O=C(O)[C@H]1CCCCN1C(=O)C(CS)Cc1ccccc1` (stereo partly drawn): the IC50 in [1] was found to be 4600 nM; in series [2], 900 nM; in [4], 700 nM. Also, the logD in series [3] was 0.49.
For `O=C(CCS)Nc1cccc([N+](=O)[O-])c1` the same measures were 2600 nM, 100 nM, 2500 nM and 2.21.
Take `NC(=O)NS(=O)(=O)c1ccc(NC(=O)CCS)cc1`: in series [21], the inhibition result was “Active”. The inhibition in [9] was less than 10%; in series [12] it was less than 10%; in series [13], 73%; in [15], 88%; in series [16], less than 10%; in [17] it was 32%. The inhibition in series [19] was less than 10%. The result in series [5], in [6], in series [7] and in series [8] was inactive. In addition, the IC50 in series [10] is 31000 nM; in series [1] it was 12600 nM; in series [2], 2000 nM; in series [22], 64000 nM; in [4] it was 8600 nM. Moreover, the Activity in [11], in [14] and in [20] was less than 10% each time. Also, the logD in [3] is -1.69. Further, the MNTC at 120 h in series [18] is no less than 150 µM.
Turning to `O=C(CCS)Nc1cccc(S(=O)(=O)O)c1`, the result in series [5], in [6], in series [7] and in [8] was inactive. In addition, the half-inhibitory concentration (IC50) was 3600 nM in series [1], 1600 nM in series [2] and 1300 nM in series [4]. Besides, the logD in series [3] was -1.35.
In the case of `CN(C)S(=O)(=O)c1ccc(NC(=O)CCS)cc1`, the outcome in series [5], in series [6], in series [7] and in [8] was inactive. Also, the 50% inhibitory concentration (IC50) stood at 2100 nM in series [1], 800 nM in [2] and 2800 nM in series [4]. Further, the pH-dependent lipophilicity (logD) in series [3] is 1.7.
In the case of `O=C(CCS)Nc1ccc(C(=O)O)cc1`, the half-maximal inhibitory concentration (IC50) in [1] was greater than 10000 nM; in series [2], 600 nM; in series [4], 1000 nM. Further, the logD in series [3] was -1.65.
As to `COC(=O)c1ccc(NC(=O)CCS)cc1`, in series [21], the inhibition result is “Active”. For the same compound, the concentration for half-maximal inhibition (IC50) in series [1] came out at 1100 nM; in series [2], 100 nM; in series [4], 2800 nM. Moreover, in series [3], the logD worked out at 1.95.
Consider `CCN(CC)Cc1cccc(NC(=O)CCS)c1`, for which the 50% inhibitory concentration (IC50) was found to be 5500 nM in series [1], 800 nM in series [2] and 6500 nM in series [4]. Besides, the log distribution coefficient (logD) in series [3] came out at 0.24.
On to `CC(=O)c1ccc(NC(=O)CCS)cc1`, for which the IC50 in series [1] stood at 5500 nM; in [2], 400 nM; in series [4], 1500 nM. In series [3], this compound came in with a logD of 1.35.
As for `Nc1ccc(NC(=O)CCS)cc1`, the results for the 50% inhibitory concentration (IC50) in series [1], in series [2] and in [4] were 2100 nM, 500 nM and 6500 nM, respectively. In [3], this compound gave a log distribution coefficient (logD) of -0.31.
For `CS(=O)(=O)Nc1ccccc1NC(=O)CCS` the same measures were greater than 10000 nM, 1900 nM, 7000 nM and 1.1.
For the compound `N=C(N)NS(=O)(=O)c1ccc(NC(=O)CCS)cc1`, the inhibition in series [9], in series [12], in [13], in [15], in series [16] and in series [17] was less than 10% each time. The compound further returned an inhibition in series [19] of 32%. In addition, the outcome in [5], in series [6], in [7] and in [8] was inactive. Moreover, the 50% inhibitory concentration (IC50) in series [1] was 3300 nM; in series [2], 500 nM; in series [4], 2100 nM. The Activity in series [11], in series [14] and in series [20] was less than 10% in each case. Moreover, the log distribution coefficient (logD) in series [3] was -0.5. Besides, the MNTC at 120 h in series [18] was no less than 150 µM.
In the case of `O=C(CCS)Nc1ccccc1O`, the IC50 in [1] was determined as 3300 nM; in [2], 200 nM; in series [4], 2200 nM. Further, in [3], the logD was determined as 1.14.
`O=C(CCS)Nc1ccc(O)cc1`: the values for the IC50 in series [1], in series [2] and in [4] were 3400 nM, 200 nM and 4000 nM, respectively. Also, the logD in series [3] is 0.32.
For `O=C(CCS)Nc1ccc(Cl)c(Cl)c1`, in series [21], the inhibition result was “Active”. In addition, the inhibition in series [9] is less than 10%; in [12], 22%; in [13] it was 18%; in series [15] it was 14%; in [16] it was less than 10%; in [17] it was less than 10%. Further, the result in [5], in [6], in series [7] and in series [8] was inactive. In addition, the half-inhibitory concentration (IC50) in [1] was 5000 nM; in [2], 100 nM; in series [4], 1300 nM. The Activity in [11], in series [14] and in [20] was less than 10% in each case. Moreover, in [3], the logD came to 5.34.
Turning to `O=C(CCS)Nc1ccc(S(=O)(=O)N2CCOCC2)cc1`, the values for the IC50 in series [1], in series [2] and in [4] were 7100 nM, 1700 nM and 2500 nM, respectively. Moreover, the logD in [3] turned out to be 1.52.
Take `COC(=O)c1ccccc1NC(=O)CCS`: the half-maximal inhibitory concentration (IC50) in [1] was determined as 1000 nM; in series [2] it was 10000 nM; in [4] it was 1300 nM. The same compound came in with a logD in series [3] of 1.95.
As to `CS(=O)(=O)Nc1cccc(NC(=O)CCS)c1`, the figures for the 50% inhibitory concentration (IC50) in [2] and in series [4] were 1300 nM and 2200 nM, respectively. The logD in series [3] stood at 0.62.

These data come from ChEMBL document CHEMBL5046281, “N-Aryl Mercaptopropionamides as Broad-Spectrum Inhibitors of Metallo-β-Lactamases” (J Med Chem, 2022).
